Data as given in patent publication US11214538B2, “Farnesoid X receptor agonists and uses thereof” (Metacrine, Inc., priority 2015, dated 2022).

Target: T1, hFXR (Homo sapiens, UniProt Q96RI1)
T1 construct: expressed in transfected cells; host or cells: CV-1 cells
T1 sequence (Q96RI1 1-486): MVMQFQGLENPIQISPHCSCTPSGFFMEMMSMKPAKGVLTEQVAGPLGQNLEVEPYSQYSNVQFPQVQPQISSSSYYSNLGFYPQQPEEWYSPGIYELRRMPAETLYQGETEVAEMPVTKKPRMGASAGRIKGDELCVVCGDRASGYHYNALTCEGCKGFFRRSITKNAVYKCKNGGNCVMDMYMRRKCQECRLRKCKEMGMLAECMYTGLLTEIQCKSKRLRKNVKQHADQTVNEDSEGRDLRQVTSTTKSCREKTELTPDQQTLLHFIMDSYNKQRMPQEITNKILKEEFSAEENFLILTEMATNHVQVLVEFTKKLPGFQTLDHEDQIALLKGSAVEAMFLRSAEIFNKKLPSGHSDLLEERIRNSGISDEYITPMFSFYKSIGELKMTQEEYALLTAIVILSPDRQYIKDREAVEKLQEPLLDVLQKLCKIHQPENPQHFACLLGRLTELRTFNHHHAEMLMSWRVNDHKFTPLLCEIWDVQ
T1 sequence (P19793 1-462 partner): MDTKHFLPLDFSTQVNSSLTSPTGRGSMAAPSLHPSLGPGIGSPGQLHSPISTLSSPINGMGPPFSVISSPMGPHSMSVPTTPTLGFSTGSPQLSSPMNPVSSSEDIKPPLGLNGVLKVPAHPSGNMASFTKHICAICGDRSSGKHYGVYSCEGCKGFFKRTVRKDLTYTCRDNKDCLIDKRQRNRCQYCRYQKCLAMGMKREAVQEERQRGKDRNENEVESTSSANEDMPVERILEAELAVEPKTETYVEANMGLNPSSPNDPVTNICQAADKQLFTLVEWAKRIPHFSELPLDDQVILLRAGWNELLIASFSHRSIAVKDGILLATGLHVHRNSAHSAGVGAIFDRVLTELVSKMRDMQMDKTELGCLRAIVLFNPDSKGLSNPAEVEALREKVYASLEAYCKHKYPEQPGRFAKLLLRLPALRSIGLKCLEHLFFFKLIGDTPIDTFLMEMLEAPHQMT
Experiment: In Vitro FXR Assay (TK), luciferase reporter in transfected CV-1 cells
Type: cell-based
Details: CV-1 cells transfected with hFXR, hRXR, TK-ECRE-luc; 18 hrs incubation; luminescence; compounds with a maximum efficacy of <25% of the Fexaramine control classified as '+'
Procedure: Example B-2: In Vitro FXR Assay (TK)
CV-1 cells were seeded at a density of 2,000,000 cells in a T175 flask with DMEM+10% charcoal double-stripped FBS and incubated at 37° C. in 5% CO2 for 18 h (O/N).
After 18 h of incubation, the medium in the T175 flask was changed with fresh DMEM+10% charcoal super-stripped serum. In a polypropylene tube, 2500 μL OptiMEM (Life Technologies, Cat #31985-062) was combined with expression plasmids for hFXR, hRXR, TK-ECRE-luc and pCMX-YFP. The tube was then briefly vortexed and incubated at room temperature for 5 minutes. Transfection reagent (X-tremeGENE HP from Roche, Cat #06 366 236 001) was added to the OptiMEM/plasmid mixture vortexed and incubated at room temperature for 20 minutes. Following incubation, the transfection reagent/DNA mixture complex was added to cells in the T175 flask and the cells were incubated at 37° C. in 5% CO2 for 18 h (O/N).
Compounds were serially diluted in DMSO and added to transfected CV-1 cells. The cells were then incubated for 18 hrs. The next day cells were lysed and examined for luminescence.

Compound | EC50 [µM]
COc1ccc(-c2cccc(N(Cc3ccc(-c4ccc(N(C)C)cc4)cc3)C(=O)C3CCCCC3)c2)cc1 [Compound 3.1, N-((4′-(Dimethylamino)-[1,1′-biphenyl]-4-yl)methyl)-N-(4′-methoxy-[1,1′-biphenyl]-3-yl)cyclohexanecarboxamide] | ≤ 3
CN(C)c1ccc(-c2ccc(CN(C(=O)C3CCCCC3)c3cccc(CCc4ncco4)c3)cc2)cc1 [Compound 22, N-((4′-(Dimethylamino)-[1,1′-biphenyl]-4-yl)methyl)-N-(3-(2-(oxazol-2-yl)ethyl)phenyl)cyclohexanecarboxamide] | ≤ 3
CN(C)c1ccc(-c2ccc(CN(C(=O)C3CCCCC3)c3cccc(-c4cccnc4)c3)cc2)cc1 [Compound 23, N-((4′-(Dimethylamino)-[1,1′-biphenyl]-4-yl)methyl)-N-(3-(pyridin-3-yl)phenyl)cyclohexanecarboxamide] | 3 to 10
Cc1cncc(-c2cccc(N(Cc3ccc(-c4ccc(N(C)C)cc4)cc3)C(=O)C3CCCCC3)c2)c1 [Compound 24, N-((4′-(Dimethylamino)-[1,1′-biphenyl]-4-yl)methyl)-N-(3-(5-methylpyridin-3-yl)phenyl)cyclohexanecarboxamide] | 3 to 10
CN(C)c1ccc(-c2ccc(CN(C(=O)C3CCCCC3)c3cccc(/C=C/c4ccccn4)c3)cc2)cc1 [Compound 27, (E)-N-((4′-(Dimethylamino)-[1,1′-biphenyl]-4-yl)methyl)-N-(3-(2-(pyridin-2-yl)vinyl)phenyl)cyclohexanecarboxamide] | ≤ 3
CN(C)c1ccc(-c2ccc(CN(C(=O)C3CCCCC3)c3cccc(/C=C/c4ccncc4)c3)cc2)cc1 [Compound 28, (E)-N-((4′-(Dimethylamino)-[1,1′-biphenyl]-4-yl)methyl)-N-(3-(2-(pyridin-4-yl)vinyl)phenyl)cyclohexanecarboxamide] | 3 to 10
COc1ncc(-c2cccc(N(Cc3ccc(-c4ccc(N(C)C)cc4)cc3)C(=O)C3CCCCC3)c2)s1 [Compound 29, N-((4′-(Dimethylamino)-[1,1′-biphenyl]-4-yl)methyl)-N-(3-(2-methoxythiazol-5-yl)phenyl)cyclohexanecarboxamide] | ≤ 3
COc1ccc(-c2cccc(N(Cc3ccc(-c4ccc(N(C)C)cc4)cc3)C(=O)C3CCCCC3)c2)s1 [Compound 31, N-((4′-(Dimethylamino)-[1,1′-biphenyl]-4-yl)methyl)-N-(3-(5-methoxythiophen-2-yl)phenyl)cyclohexanecarboxamide] | ≤ 3
CCc1cncc(-c2cccc(N(Cc3ccc(-c4ccc(N(C)C)cc4)cc3)C(=O)C3CCCCC3)c2)c1 [Compound 33, N-((4′-(Dimethylamino)-[1,1′-biphenyl]-4-yl)methyl)-N-(3-(5-ethylpyridin-3-yl)phenyl)cyclohexanecarboxamide] | 3 to 10
COc1cc(-c2cccc(N(Cc3ccc(-c4ccc(N(C)C)cc4)cc3)C(=O)C3CCCCC3)c2)ncn1 [Compound 35, N-((4′-(Dimethylamino)-[1,1′-biphenyl]-4-yl)methyl)-N-(3-(6-methoxypyrimidin-4-yl)phenyl)cyclohexanecarboxamide] | ≤ 3
COc1cc(-c2cccc(N(Cc3ccc(-c4ccc(N(C)C)cc4)cc3)C(=O)C3CCCCC3)c2)sn1 [Compound 43, N-((4′-(Dimethylamino)-[1,1′-biphenyl]-4-yl)methyl)-N-(3-(3-methoxyisothiazol-5-yl)phenyl)cyclohexanecarboxamide] | ≤ 3
CN(C)c1ccc(-c2ccc(CN(C(=O)C3CCCCC3)c3cccc(-c4cc(=O)n(C)s4)c3)cc2)cc1 [Compound 44, N-((4′-(Dimethylamino)-[1,1′-biphenyl]-4-yl)methyl)-N-(3-(2-methyl-3-oxo-2,3-dihydroisothiazol-5-yl)phenyl)cyclohexanecarboxamide] | ≤ 3
COc1ccc([C@H]2CC[C@H](CN(c3cccc(N4CC(OC)C4)c3)C(=O)[C@H]3CC[C@H](O)CC3)CC2)cc1C [Compound 45, trans-4-Hydroxy-N-((trans-4-(4-methoxy-3-methylphenyl)cyclohexyl)methyl)-N-(3-(3-methoxyazetidin-1-yl)phenyl)cyclohexanecarboxamide] | ≤ 3
COCC1CN(c2cccc(N(C[C@H]3CC[C@H](c4ccc(OC)c(C)c4)CC3)C(=O)[C@H]3CC[C@H](O)CC3)c2)C1 [Compound 46, trans-4-Hydroxy-N-((trans-4-(4-methoxy-3-methylphenyl)cyclohexyl)methyl)-N-(3-(3-(methoxymethyl)azetidin-1-yl)phenyl)cyclohexanecarboxamide] | ≤ 3
COc1ccc([C@H]2CC[C@H](CN(c3cccc(N4CCC(OC)C4)c3)C(=O)[C@H]3CC[C@H](O)CC3)CC2)cc1C (stereo partly drawn) [Compound 47, trans-4-Hydroxy-N-((trans-4-(4-methoxy-3-methylphenyl)cyclohexyl)methyl)-N-(3-(3-methoxypyrrolidin-1-yl)phenyl)cyclohexanecarboxamide] | 3 to 10
COCC1CCN(c2cccc(N(C[C@H]3CC[C@H](c4ccc(OC)c(C)c4)CC3)C(=O)[C@H]3CC[C@H](O)CC3)c2)C1 (stereo partly drawn) [Compound 48, trans-4-Hydroxy-N-((trans-4-(4-methoxy-3-methylphenyl)cyclohexyl)methyl)-N-(3-(3-(methoxymethyl)pyrrolidin-1-yl)phenyl)cyclohexanecarboxamide] | 3 to 10
COc1ccc([C@H]2CC[C@H](CN(c3cccc(N4CCC(OC)CC4)c3)C(=O)[C@H]3CC[C@H](O)CC3)CC2)cc1C [Compound 49, trans-4-Hydroxy-N-((trans-4-(4-methoxy-3-methylphenyl)cyclohexyl)methyl)-N-(3-(4-methoxypiperidin-1-yl)phenyl)cyclohexanecarboxamide] | ≤ 3
